Consider four compounds from US10051857B2, “Formulation component” (SYNGENTA LIMITED, priority 2011, dated 2018).

SMILES strings stand for the structures.

Format in all cases: in vivo
For test [1], the system named is four weed species (ALOMY, AVEFA, LOLPE, SETVI). The experiment in a line: Glasshouse adjuvant test with pinoxaden (Example 8), mean across species. The note with it: pinoxaden 7.5 or 15 g/ha, adjuvant 0.2% v/v or none. As for the experimental part: (§1) The adjuvant shown in example 1 was tested in a glasshouse against four weed species in combination with the herbicide pinoxaden. A 20% w/w stock emulsion of compound 1 was prepared additionally containing 2% w/w Gohsenol® GL03 and 2% w/w Pluronic® PE10500 as surfactants. Using this, an agrochemical composition was prepared containing 0.2% v/v of the adjuvant in a track sprayer and was applied at a volume of 200 liters per hectare. Pinoxaden was applied at either 7.5 or 15 grams of pesticide per hectare on each of the weed species. The weed species and their growth stage at spraying were Alopecurus myosuroides (ALOMY; growth stage 13), Avena fatua (AVEFA; growth stage 12); Lolium perenne (LOLPE; growth stage 13), Setaria viridis (SETVI; growth stage 14).
(§2) Each spray test was replicated three times. The efficacy of the herbicide was assessed visually and expressed as a percentage of the leaf area killed. Samples were assessed at time periods of 14 and 21 days following application. The results shown in Table 8 are mean averages over the two rates of pinoxaden, three replicates and the two assessment timings, and are compared to the efficacy of pinoxaden in the absence of adjuvant.

In test [2] the test system is Avena fatua (AVEFA). The test can be described thus: Glasshouse adjuvant test with pinoxaden (Example 8). The note with it: pinoxaden 7.5 or 15 g/ha, adjuvant 0.2% v/v or none, 200 l/ha; growth stage 12; mean over two rates, three replicates, 14 and 21 days. As for the experimental part: as §1, §2
In test [3] the test system is Alopecurus myosuroides (ALOMY). Described as above. The note with it: pinoxaden 7.5 or 15 g/ha, adjuvant 0.2% v/v or none, 200 l/ha; growth stage 13; mean over two rates, three replicates, 14 and 21 days. As for the experimental part:
as §1, §2

The test system of test [4] is Lolium perenne (LOLPE). Described as above. The following applies: pinoxaden 7.5 or 15 g/ha, adjuvant 0.2% v/v or none, 200 l/ha; growth stage 13; mean over two rates, three replicates, 14 and 21 days. As for the experimental part:
as §1, §2

Test [5] concerns Setaria viridis (SETVI). The description is as above. The note with it: pinoxaden 7.5 or 15 g/ha, adjuvant 0.2% v/v or none, 200 l/ha; growth stage 14; mean over two rates, three replicates, 14 and 21 days. The method, then:
as §1, §2

In test [6] the test system is four weed species (ABUTH, CHEAL, SETVI, XANST). The experiment in a line: Glasshouse adjuvant test with fomesafen (Example 3), mean across species. The note with it: fomesafen 60 or 120 g/ha, adjuvant 0.2% v/v or none. The method, then: (§3) Compound No. 2 was tested in a glasshouse against four weed species in combination with the herbicide fomesafen. An agrochemical composition was prepared containing 0.2% v/v of the adjuvant in a track sprayer and was applied at a volume of 200 liters per hectare. Fomesafen was applied at either 60 or 120 grams of pesticide per hectare on weeds which had been grown to the 1.3 or 1.4 leaf stage. The weed species were Chenopodium album (CHEAL), Abutilon theophrasti (ABUTH), Setaria viridis (SETVI), and Xanthium strumarium (XANST).
(§4) Each spray test was replicated six times. The efficacy of the herbicide was assessed visually and expressed as a percentage of the leaf area killed. Samples were assessed at time periods of 7 and 14 days following application. The results shown in Table 3 below are mean averages over the two rates of fomesafen, six replicates and the two assessment timings, and are compared to the efficacy of fomesafen in the absence of adjuvant.

The test system of test [7] is Chenopodium album (CHEAL). The experiment in a line: Glasshouse adjuvant test with fomesafen (Example 5). The note with it: fomesafen 60 or 120 g/ha, adjuvant 0.2% v/v or none, 200 l/ha; growth stage 13/14; mean over two rates, three replicates, 7, 14 and 21 days. The method, then:
(§5) Compound 1 (N, N-diethyl-3-methylbenzamide) was tested in a glasshouse against four weed species using the herbicide fomesafen. An agrochemical composition was prepared containing 0.2% v/v of the adjuvant in a track sprayer and was applied at a volume of 200 liters per hectare. Fomesafen was applied at either 60 or 120 grams of pesticide per hectare on each of the weed species. The weed species and their growth stage at spraying were Chenopodium album (CHEAL; growth stage 13/14), Abutilon theophrasti (ABUTH; growth stage 12), Setaria viridis (SETVI; growth stage 13), and Xanthium strumarium (XANST; growth stage 12).
(§6) Each spray test was replicated three times. The efficacy of the herbicide was assessed visually and expressed as a percentage of the leaf area killed. Samples were assessed at time periods of 7, 14 and 21 days following application. The results shown in Table 5 below are mean averages over the two rates of fomesafen, three replicates and the three assessment timings, and are compared to the efficacy of fomesafen in the absence of adjuvant.

The test system of test [8] is Xanthium strumarium (XANST). Described as above. The following applies: fomesafen 60 or 120 g/ha, adjuvant 0.2% v/v or none, 200 l/ha; growth stage 12; mean over two rates, three replicates, 7, 14 and 21 days. As for the experimental part: as §5, §6
The subject of test [9] is Abutilon theophrasti (ABUTH). Described as above. The note with it: fomesafen 60 or 120 g/ha, adjuvant 0.2% v/v or none, 200 l/ha; growth stage 12; mean over two rates, three replicates, 7, 14 and 21 days. As for the experimental part:
as §5, §6

Test [10] concerns Setaria viridis (SETVI). The description is as above. The note with it: fomesafen 60 or 120 g/ha, adjuvant 0.2% v/v or none, 200 l/ha; growth stage 13; mean over two rates, three replicates, 7, 14 and 21 days. As for the experimental part:
as §5, §6

Test [11] relates to Chenopodium album (CHEAL). The test can be described thus: Glasshouse adjuvant test with fomesafen (Example 3). The note with it: fomesafen 60 or 120 g/ha, adjuvant 0.2% v/v or none, 200 l/ha; leaf area killed; mean over two rates, six replicates, 7 and 14 days. The method, then: as §3, §4
Test [12] has as its system Xanthium strumarium (XANST). Described as above. The note with it: fomesafen 60 or 120 g/ha, adjuvant 0.2% v/v or none, 200 l/ha; leaf area killed; mean over two rates, six replicates, 7 and 14 days. The method, then:
as §3, §4

Test [13] relates to Abutilon theophrasti (ABUTH). Described as above. The note with it: fomesafen 60 or 120 g/ha, adjuvant 0.2% v/v or none, 200 l/ha; leaf area killed; mean over two rates, six replicates, 7 and 14 days. The method, then:
as §3, §4

The subject of test [14] is Setaria viridis (SETVI). The description is as above. The following applies: fomesafen 60 or 120 g/ha, adjuvant 0.2% v/v or none, 200 l/ha; leaf area killed; mean over two rates, six replicates, 7 and 14 days. As for the experimental part: as §3, §4
Test [15] relates to four weed species (CHEAL, ABUTH, SETVI, XANST). The experiment in a line: Glasshouse adjuvant test with fomesafen (Example 5), mean across species. The note with it: fomesafen 60 or 120 g/ha, adjuvant 0.2% v/v or none. The method, then: as §5, §6
The test system of test [16] is Brachiaria decumbens (BRADE). The test can be described thus: Glasshouse adjuvant test with mesotrione (Example 6). The following applies: mesotrione 45 or 90 g/ha, adjuvant 0.2% v/v or none, 200 l/ha; growth stage 13/14; mean over two rates, three replicates, 7, 14 and 21 days. As for the experimental part:
(§7) Compound 1 was tested in a glasshouse against four weed species using the herbicide mesotrione. A 20% w/w stock emulsion of compound 1 was prepared additionally containing 2% w/w Gohsenol® GL03 and 2% w/w Pluronic® PE10500 as surfactants. Using this, an agrochemical composition was prepared containing 0.2% v/v of the adjuvant in a track sprayer and was applied at a volume of 200 liters per hectare. Mesotrione was applied at either 45 or 90 grams of pesticide per hectare on each of the weed species. The weed species and their growth stage at spraying were Amaranthus tuberculatus (AMATE; growth stage 13/14), Brachiaria decumbens (BRADE; growth stage 13/14), Digitaria sanguinalis (DIGSA; growth stage 14), and Polygonum convolvulus (POLCO; growth stage 11/11.5).
(§8) Each test was replicated three times. The efficacy of the herbicide was assessed visually and expressed as a percentage of the leaf area killed. Samples were assessed at time periods of 7, 14 and 21 days following application. The results shown in Table 6 below are mean averages over the two rates of mesotrione, three replicates and the three assessment timings, and are compared to the efficacy of mesotrione in absence of adjuvant.

Test [17] concerns Polygonum convolvulus (POLCO). The description is as above. The following applies: mesotrione 45 or 90 g/ha, adjuvant 0.2% v/v or none, 200 l/ha; growth stage 11/11.5; mean over two rates, three replicates, 7, 14 and 21 days. As for the experimental part: as §7, §8
Test [18] concerns Amaranthus tuberculatus (AMATE). The description is as above. The note with it: mesotrione 45 or 90 g/ha, adjuvant 0.2% v/v or none, 200 l/ha; growth stage 13/14; mean over two rates, three replicates, 7, 14 and 21 days. As for the experimental part:
as §7, §8

Test [19] concerns Digitaria sanguinalis (DIGSA). The test is described as above. The note with it: mesotrione 45 or 90 g/ha, adjuvant 0.2% v/v or none, 200 l/ha; growth stage 14; mean over two rates, three replicates, 7, 14 and 21 days. The method, then: as §7, §8
Test [20] concerns four weed species (AMATE, BRADE, DIGSA, POLCO). The test can be described thus: Glasshouse adjuvant test with mesotrione (Example 6), mean across species. The note with it: mesotrione 45 or 90 g/ha, adjuvant 0.2% v/v or none.
The test system of test [21] is Chenopodium album (CHEAL). The experiment in a line: Glasshouse adjuvant test with nicosulfuron (Example 7). The following applies: nicosulfuron 30 or 60 g/ha, adjuvant 0.2% v/v or none, 200 l/ha; growth stage 14; mean over two rates, three replicates, 14 and 21 days. The method, then:
(§9) Compound 1 was tested in a glasshouse against four weed species using the herbicide nicosulfuron. A 20% w/w stock emulsion of compound 1 was prepared additionally containing 2% w/w Gohsenol® GL03 and 2% w/w Pluronic® PE10500 as surfactants. Using this, an agrochemical composition was prepared containing 0.2% v/v of the adjuvant in a track sprayer and was applied at a volume of 200 liters per hectare. Nicosulfuron was applied at either 30 or 60 grams of pesticide per hectare on each of the weed species. The weed species and their growth stage at spraying were Abutilon theophrasti (ABUTH; growth stage 13), Chenopodium album (CHEAL; growth stage 14), Digitaria sanguinalis (DIGSA; growth stage 13), and Setaria viridis (SETVI; growth stage 13).
(§10) Each spray test replicated three times. The efficacy of the herbicide was assessed visually and expressed as a percentage of the leaf area killed. Samples were assessed at time periods of 14 and 21 days following application. The results shown in Table 7 below are mean averages over the two rates of nicosulfuron, three replicates and the two assessment timings, and are compared to the efficacy of nicosulfuron in the absence of an adjuvant.

Test [22] deals with Digitaria sanguinalis (DIGSA). The description is as above. The note with it: nicosulfuron 30 or 60 g/ha, adjuvant 0.2% v/v or none, 200 l/ha; growth stage 13; mean over two rates, three replicates, 14 and 21 days. As for the experimental part:
as §9, §10

Test [23] deals with Abutilon theophrasti (ABUTH). The test is described as above. The following applies: nicosulfuron 30 or 60 g/ha, adjuvant 0.2% v/v or none, 200 l/ha; growth stage 13; mean over two rates, three replicates, 14 and 21 days. As for the experimental part:
as §9, §10

For test [24], the system named is Setaria viridis (SETVI). The test is described as above. The note with it: nicosulfuron 30 or 60 g/ha, adjuvant 0.2% v/v or none, 200 l/ha; growth stage 13; mean over two rates, three replicates, 14 and 21 days. The method, then:
as §9, §10

Test [25] deals with four weed species (ABUTH, CHEAL, DIGSA, SETVI). The experiment in a line: Glasshouse adjuvant test with nicosulfuron (Example 7), mean across species. The note with it: nicosulfuron 30 or 60 g/ha, adjuvant 0.2% v/v or none. The method, then: as §9, §10

On to `CCc1cc(C)cc(CC)c1-c1c(OC(=O)C(C)(C)C)n2n(c1=O)CCOCC2` [Pinoxaden, pinoxaden, reference compound], for which, in [1], the “Mean percentage kill, Mean across species” value was 17.4%. For the same compound, the “Mean percentage kill AVEFA” value in test [2] is 20.8%. Further, in [3], the “Mean percentage kill ALOMY” value turned out to be 21.2%. The “Mean percentage kill LOLPE” value in [4] is 12.5%. In test [5], the “Mean percentage kill SETVI” value is listed as 15%.
With `CS(=O)(=O)NC(=O)c1cc(Oc2ccc(C(F)(F)F)cc2Cl)ccc1[N+](=O)[O-]` [fomesafen, reference compound], the “Mean percentage kill, Mean across species” value came to 47.0% in [6] and 37.7% in test [15]. Besides, the figures for the “Mean percentage kill CHEAL” value in test [7] and in test [11] were 77.5% and 43.3%, respectively. In addition, the entries for the “Mean percentage kill XANST” value in test [8] and in test [12] were 42.8% and 45.8%, respectively. Besides, the “Mean percentage kill ABUTH” value in test [9] is listed as 20%; in test [13], 60.8%. Besides, the results for the “Mean percentage kill SETVI” value in [10] and in [14] were 10.6% and 38.2%, respectively.
With `CS(=O)(=O)c1ccc(C(=O)C2C(=O)CCCC2=O)c([N+](=O)[O-])c1` [mesotrione, reference compound], in test [16], the “Mean percentage kill BRADE” value was 26.7%. For the same compound, the “Mean percentage kill POLCO” value in [17] is 73.3%. Moreover, the “Mean percentage kill AMATE” value in [18] came out at 65.6%. The “Mean percentage kill DIGSA” value in test [19] is 23%. Further, in test [20], the “Mean percentage kill, Mean across species” value was found to be 47.1%.
Take `COc1cc(OC)nc(NC(=O)NS(=O)(=O)c2ncccc2C(=O)N(C)C)n1` [nicosulfuron, reference compound]: the “Mean percentage kill CHEAL” value in [21] is recorded as 50.8%. For the same compound, the “Mean percentage kill DIGSA” value in [22] is on record as 87.9%. In addition, the “Mean percentage kill ABUTH” value in [23] was 69.2%. The “Mean percentage kill SETVI” value in [24] is listed as 92%. Also, in test [25], the “Mean percentage kill, Mean across species” value is recorded as 75%.
